# Assay: stability of the drug substance in water
# Format: physicochemical
smiles,measurement,setting,value
"CN1CCN(c2nc(C3=C(c4c[nH]c5ccccc45)C(=O)NC3=O)c3ccccc3n2)CC1 [3-(1.H.-indol-3-yl)-4-[2-(4-methyl-piperazin-1-yl)-quinazolin-4-yl]-pyrrole-2,5-dione]",water sensitivity,"may convert to free base hydrate, solvate or amorphous form in the presence of ethanol and/or water",water sensitive
same,degradation in water,"water, renders aqueous granulation difficult",high degradation
